For this data set the following is noted: 101.33 kPa, Liquid; for viscosity: Capillary tube (Ostwald / Ubbelohde) method; for mass density: Vibrating tube method.
Where [1] appears, read: 298.15 K, automatically measured using an Anton Paar DSA 5000 instrument.
Where [2] appears, read: 303.15 K, automatically measured using an Anton Paar DSA 5000 instrument.
Setting [3] is: 308.15 K, automatically measured using an Anton Paar DSA 5000 instrument.

SMILES strings stand for the structures. ± gives the expanded uncertainty stated by the source.

The source of these data is the NIST ThermoML archive (doi:10.1016/j.jct.2009.02.002).

A word on the viscosity: it is the resistance of a fluid to flow. Usually mass density stands for the mass of a sample divided by its volume. As usually defined, the speed of sound is the propagation velocity of pressure waves in the medium. As to `CC(C)CCCC(C)CCCC(C)CCCCC(C)CCCC(C)CCCC(C)C` (configuration not stated) [2,6,10,15,19,23-hexamethyltetracosane], the viscosity is given as 28.26 ± 0.14 mPa·s (298.15 K), 22.09 ± 0.11 mPa·s (303.15 K) and 17.77 ± 0.09 mPa·s (308.15 K). In addition, the mass density (298.15 K) amounted to 805.122 ± 0.14 kg/m3, the mass density (303.15 K) was 801.912 ± 0.14 kg/m3 and the mass density (308.15 K) came out at 798.709 ± 0.14 kg/m3. The speed of sound reads like this: under setting [1], 1381.9 ± 0.5 m/s; under setting [2], 1364.1 ± 0.5 m/s; under setting [3], 1346.5 ± 0.5 m/s.

Regarding `CC(C)CO` [2-methyl-1-propanol], the viscosity reads like this: (298.15 K) 3.404 ± 0.021 mPa·s; (303.15 K) 2.695 ± 0.017 mPa·s; (308.15 K) 2.188 ± 0.014 mPa·s. In addition, the mass density is, setting by setting: (298.15 K) 798.52 ± 0.14 kg/m3; (303.15 K) 794.6 ± 0.14 kg/m3; (308.15 K) 790.63 ± 0.15 kg/m3. For the same compound, the speed of sound under setting [1] turned out to be 1189.6 ± 0.5 m/s, the speed of sound under setting [2] worked out at 1172.9 ± 0.5 m/s and the speed of sound under setting [3] is reported as 1156.2 ± 0.5 m/s.

For `CCCCCCCCCCCCCCCC` [hexadecane], the viscosity by setting is: (298.15 K) 3.041 ± 0.019 mPa·s; (303.15 K) 2.706 ± 0.017 mPa·s; (308.15 K) 2.409 ± 0.015 mPa·s. Further, the speed of sound came to 1338.6 ± 0.8 m/s (298.15 K, Pulse-echo method); 1320 ± 0.8 m/s (303.15 K, Pulse-echo method); 1301.7 ± 0.8 m/s (308.15 K, Pulse-echo method). Besides, the mass density is, setting by setting: (298.15 K) 770.456 ± 0.15 kg/m3; (303.15 K) 766.981 ± 0.15 kg/m3; (308.15 K) 763.52 ± 0.15 kg/m3.
